Data reported in patent publication US10815276B2, “Cell penetrating peptides and methods of making and using thereof” (Entrada Therapeutics, Inc., priority 2014, dated 2020).
Starred links: 1 amine or outer side, 2 acyl side, 3 side chain; linkers in the order of their positions; H or OH if unused. Positions of bridges follow the written chain, without caps; N, C: chain ends. Non-standard residues stand in square brackets, D forms with d. Residues, ends and D or L forms follow the SMILES beside them. No end group written: not given here. Trimesoyl = O=C(c1cc(C(=O)[*:2])cc(C(=O)[*:3])c1)[*:1]; Phe(4-F) = N[C@@H](Cc1ccc(F)cc1)C(=O)O; dPhe(4-F) = N[C@H](Cc1ccc(F)cc1)C(=O)O; 2Nal = N[C@@H](Cc1ccc2ccccc2c1)C(=O)O; Pip = O=C(O)[C@@H]1CCCCN1; Dap = NC[C@H](N)C(=O)O

Assays:
Pin1 [1] = target: T1, Pin1 (Homo sapiens, UniProt Q13526, S16A/Y23A); test: Pin1 binding by FA (FITC-labeled peptides); details: FITC-labeled peptide, FA; read-out: KD
T1 construct: The full-length human S16A/Y23A mutant Pin1 was expressed and purified from E. coli; made in house
T1 sequence (Q13526 whole entry S16A/Y23A): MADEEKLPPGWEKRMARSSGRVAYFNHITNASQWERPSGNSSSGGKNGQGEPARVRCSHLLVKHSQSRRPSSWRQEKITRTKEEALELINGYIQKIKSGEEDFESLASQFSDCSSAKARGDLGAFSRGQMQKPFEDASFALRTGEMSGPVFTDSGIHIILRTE

Pin1 [2] = target: T1, Pin1; test: FA competition with FITC-labeled peptide 1; details: 100 nM FITC-labeled peptide 1, 400 nM Pin1; read-out: IC50 for inhibiting binding of peptide 1 to Pin1
Procedure: (§1) (FIG. 37A) Binding to FITC-labeled peptide 37 to Pin1 as analyzed by fluorescent anisotropy (FA). (FIG. 37B) Competition between peptide 37 and FITC-labeled peptide 1 (100 nM) for binding to Pin1 (400 nM) as monitored by FA. (FIG. 37C) Effect of peptide 37 on the cis-trans isomerase activity of Pin1, Pin4, FKBP12, and cyclophilin A using Suc-Ala-Glu-Pro-Phe-pNA as substrate. (FIG. 37D) Comparison of the serum stability of peptides 1 and 37.
(§2) To determine whether peptide 37 binds to the catalytic site of Pin1, its ability to compete with peptide 1 for binding to Pin1 by FA analysis was examined. […] Next, the catalytic activity of Pin1 toward a peptide substrate, Suc-Ala-Glu-Pro-Phe-pNA, in the presence of increasing concentrations of peptide 37 was monitored.

Pin1 [3] = target: T1, Pin1; test: cis-trans isomerase activity, Suc-Ala-Glu-Pro-Phe-pNA; format: biochemical; details: substrate Suc-Ala-Glu-Pro-Phe-pNA; read-out: IC50 for Pin1 catalytic activity
Procedure: as §1, §2

[4] = target: bovine serum albumin (BSA) (Bos taurus, UniProt P02769); test: biochemical; format: binding
bovine serum albumin (BSA), sequence (P02769 25-607): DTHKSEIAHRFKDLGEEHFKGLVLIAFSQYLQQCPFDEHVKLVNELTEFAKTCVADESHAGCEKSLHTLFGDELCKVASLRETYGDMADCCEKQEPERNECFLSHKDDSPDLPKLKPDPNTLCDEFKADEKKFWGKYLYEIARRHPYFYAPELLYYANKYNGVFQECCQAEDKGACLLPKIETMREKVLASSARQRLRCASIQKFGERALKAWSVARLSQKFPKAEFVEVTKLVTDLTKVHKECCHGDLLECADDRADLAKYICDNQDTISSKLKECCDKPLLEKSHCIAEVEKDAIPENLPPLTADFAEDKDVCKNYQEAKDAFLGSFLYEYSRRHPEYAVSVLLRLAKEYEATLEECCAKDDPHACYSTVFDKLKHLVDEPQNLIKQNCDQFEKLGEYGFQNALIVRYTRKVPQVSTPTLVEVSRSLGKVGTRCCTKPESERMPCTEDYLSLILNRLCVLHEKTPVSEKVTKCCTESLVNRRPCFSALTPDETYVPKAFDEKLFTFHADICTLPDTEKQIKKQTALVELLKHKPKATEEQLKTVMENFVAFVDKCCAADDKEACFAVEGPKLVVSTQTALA
Procedure: (§3) The selectivity of peptide 37 was assessed by two different tests. First, peptide 37 was tested for binding to a panel of arbitrarily selected proteins including bovine serum albumin (BSA), protein tyrosine phosphatases 1B, SHP1, and SHP2, the Grb2 SH2 domain, Ras, and tumor necrosis factor-a. […] Peptide 37 was next tested for potential inhibition of Pin4, FKBP12, and cyclophilin A, the three other common human peptidyl-prolyl cis-trans isomerases. […] Peptide 37 had no effect on the catalytic activity of FKBP12 or cyclophilin A up to 5 μM concentration.

Grb2 SH2 domain = target: T2, Grb2 SH2 domain (Homo sapiens, UniProt P62993); test: Selectivity panel binding
T2 construct: the Grb2 SH2 domain
T2 sequence (P62993 60-152 limits assumed): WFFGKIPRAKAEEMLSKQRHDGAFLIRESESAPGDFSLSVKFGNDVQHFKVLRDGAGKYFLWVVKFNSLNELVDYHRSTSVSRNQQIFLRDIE
Procedure: as §3

Ras = test: Selectivity panel binding
Procedure: as §3

SHP1 = SHP1 (Homo sapiens, UniProt P29350); test: Selectivity panel binding
SHP1, sequence (P29350 whole entry): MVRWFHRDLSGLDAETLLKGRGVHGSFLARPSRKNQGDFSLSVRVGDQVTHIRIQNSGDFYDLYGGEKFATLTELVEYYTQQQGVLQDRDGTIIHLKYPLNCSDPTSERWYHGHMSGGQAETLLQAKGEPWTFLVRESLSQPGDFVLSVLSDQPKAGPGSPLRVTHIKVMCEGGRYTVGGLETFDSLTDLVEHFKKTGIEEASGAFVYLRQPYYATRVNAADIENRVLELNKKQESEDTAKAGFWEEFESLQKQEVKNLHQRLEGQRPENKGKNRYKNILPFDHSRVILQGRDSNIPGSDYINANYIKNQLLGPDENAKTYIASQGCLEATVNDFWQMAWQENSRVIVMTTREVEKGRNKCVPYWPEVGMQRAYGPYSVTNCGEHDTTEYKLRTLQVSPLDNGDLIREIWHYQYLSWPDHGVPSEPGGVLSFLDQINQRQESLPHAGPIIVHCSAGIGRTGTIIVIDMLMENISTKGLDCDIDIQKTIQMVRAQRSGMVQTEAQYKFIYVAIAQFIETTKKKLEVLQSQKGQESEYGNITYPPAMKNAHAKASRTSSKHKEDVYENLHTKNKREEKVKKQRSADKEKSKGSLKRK
Procedure: as §3

SHP2 = SHP2 (Homo sapiens, UniProt Q06124); test: Selectivity panel binding
SHP2, sequence (Q06124 whole entry, species assumed): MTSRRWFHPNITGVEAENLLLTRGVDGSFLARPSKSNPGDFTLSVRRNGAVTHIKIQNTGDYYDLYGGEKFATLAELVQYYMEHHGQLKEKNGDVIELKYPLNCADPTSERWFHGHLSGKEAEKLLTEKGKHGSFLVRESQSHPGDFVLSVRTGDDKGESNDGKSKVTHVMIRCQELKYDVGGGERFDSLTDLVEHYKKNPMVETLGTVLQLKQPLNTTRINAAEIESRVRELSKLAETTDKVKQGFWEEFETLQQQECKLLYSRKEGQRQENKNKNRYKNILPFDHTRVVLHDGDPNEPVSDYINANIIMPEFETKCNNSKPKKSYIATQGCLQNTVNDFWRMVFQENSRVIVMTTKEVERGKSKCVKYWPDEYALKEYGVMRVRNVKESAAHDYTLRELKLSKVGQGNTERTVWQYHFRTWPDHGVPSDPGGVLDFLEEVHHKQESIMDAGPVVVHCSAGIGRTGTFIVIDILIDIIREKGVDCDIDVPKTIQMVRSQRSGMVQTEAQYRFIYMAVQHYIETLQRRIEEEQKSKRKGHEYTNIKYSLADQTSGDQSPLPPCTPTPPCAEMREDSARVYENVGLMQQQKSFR
Procedure: as §3

[5] = target: protein tyrosine phosphatases 1B (Homo sapiens, UniProt P18031); test: Selectivity panel binding
protein tyrosine phosphatases 1B, sequence (P18031 whole entry): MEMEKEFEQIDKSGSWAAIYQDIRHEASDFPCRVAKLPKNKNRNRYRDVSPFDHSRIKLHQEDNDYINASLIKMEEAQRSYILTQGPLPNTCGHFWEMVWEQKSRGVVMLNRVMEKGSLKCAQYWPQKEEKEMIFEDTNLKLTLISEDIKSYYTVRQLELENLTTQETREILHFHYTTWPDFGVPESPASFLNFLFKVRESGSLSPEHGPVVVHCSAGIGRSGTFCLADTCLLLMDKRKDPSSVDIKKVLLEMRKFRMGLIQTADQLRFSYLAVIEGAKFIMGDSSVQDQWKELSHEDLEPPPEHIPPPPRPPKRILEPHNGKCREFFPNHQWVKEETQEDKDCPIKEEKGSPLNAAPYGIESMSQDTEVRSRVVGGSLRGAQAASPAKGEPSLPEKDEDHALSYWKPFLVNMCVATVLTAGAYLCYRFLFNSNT
Procedure: as §3

tumor necrosis factor-a = tumor necrosis factor-a (Homo sapiens, UniProt P01375); test: Selectivity panel binding
tumor necrosis factor-a, sequence (P01375 77-233 limits assumed): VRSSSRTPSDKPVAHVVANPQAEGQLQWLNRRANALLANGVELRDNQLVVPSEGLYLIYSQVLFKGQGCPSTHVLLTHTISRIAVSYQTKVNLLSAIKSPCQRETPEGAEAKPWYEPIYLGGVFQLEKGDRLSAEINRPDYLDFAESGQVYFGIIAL
Procedure: as §3

FKBP12 = FKBP12 (Homo sapiens, UniProt P62942); test: cis-trans isomerase activity; format: biochemical; details: up to 5 μM
FKBP12, sequence (P62942 whole entry): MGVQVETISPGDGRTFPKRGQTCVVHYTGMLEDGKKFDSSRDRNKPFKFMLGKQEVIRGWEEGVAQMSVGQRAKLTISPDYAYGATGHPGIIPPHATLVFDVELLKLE
Procedure: as §1, §3

Pin4 = Pin4 (Homo sapiens, UniProt Q9Y237); test: cis-trans isomerase activity; format: biochemical
Pin4, sequence (Q9Y237 whole entry): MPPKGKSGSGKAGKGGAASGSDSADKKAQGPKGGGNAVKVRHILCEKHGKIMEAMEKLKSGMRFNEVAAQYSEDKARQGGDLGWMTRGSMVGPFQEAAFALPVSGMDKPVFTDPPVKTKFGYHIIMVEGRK
Procedure: as §1, §3

cyclophilin A = cyclophilin A (Homo sapiens, UniProt P62937); test: cis-trans isomerase activity; format: biochemical; details: up to 5 μM
cyclophilin A, sequence (P62937 whole entry): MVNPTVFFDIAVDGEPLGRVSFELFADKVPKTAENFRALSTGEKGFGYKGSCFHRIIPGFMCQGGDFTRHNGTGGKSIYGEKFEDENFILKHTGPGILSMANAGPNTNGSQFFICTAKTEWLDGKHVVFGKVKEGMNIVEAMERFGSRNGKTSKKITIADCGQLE
Procedure: as §1, §3

HeLa cells [6] = test: Cellular uptake by flow cytometry; format: cell-based, human
Procedure: The cellular uptake efficiency of peptide 37, peptide 1, and a previously reported membrane-impermeable monocyclic Pin1 inhibitor (Table 18, peptide 46) was assessed by incubating HeLa cells with the FITC-labeled peptides (5 μM) for 2 h and quantifying the total intracellular fluorescence by flow cytometry analysis. […] By contrast, cells treated with peptides 1 and 37 gave MFI values of 2562 and 8792, respectively. Thus, peptide 37 is internalized by HeLa cells ˜4-fold more efficiently than peptide 1. Presumably, the negative charged phosphate group of peptide 1 interacted electrostatically with the positively charged CPP motif and reduced the cellular uptake efficiency of the latter.

HeLa cells [7] = test: Western blot of PML protein level; format: cell-based, human
Procedure: FIGS. 38A, 38B, 38C, and 38D display cellular activity of peptide 37. (FIG. 38A) Cellular uptake of peptides 1, 37, and 46 (5 μM) by HeLa cells as analyzed by flow cytometry. MFI, mean fluorescence intensity; none, untreated cells (no peptide). (FIG. 38B) Anti-proliferative effect of peptides 37, 46, and 47 on HeLa cells as measured by MTT assay. (FIG. 38C) Western blots showing the effect of peptides 1, 37 and 47 on the protein level of PML in HeLa cells. β-Actin was used as loading control. (FIG. 38D) Quantification of western blot results from (FIG. 38C). Data reported were after background subtraction and represent the mean±SD from 3 independent experiments.
Finally, to ascertain that Pin1 is the molecular target of peptide 37 in vivo, the intracellular protein level of a well-established Pin1 substrate, […] (PML), was examined by western blot analysis. Pin1 negatively regulates the PML level in a phosphorylation-dependent manner and inhibition of Pin1 activity is expected to stabilize PML and increase its intracellular level. […] The effect was already significant at 0.2 μM inhibitor (1.8-fold increase in the PML level) and plateaued at ˜1 μM (3.3-fold increase). Again, bicyclic peptide 47 had no effect under the same conditions, while peptide 1 (the positive control, at 5 μM) increased the PML level by 3.1-fold.

HeLa cells [8] = tested on: HeLa cells
Excerpt: The effect of peptide 37 on the growth of HeLa cells was examined by using the MTT cell viability assay.

[9] = target: T3, recombinant caspase-3 enzyme (Homo sapiens, UniProt P42574); test: In vitro fluorimetric caspase assay; format: biochemical; details: 10 μM substrate, 10 mM DTT
T3 construct: purchased EMD Chemicals (San Diego, Calif.)
T3 sequence (P42574 29-175 limits assumed): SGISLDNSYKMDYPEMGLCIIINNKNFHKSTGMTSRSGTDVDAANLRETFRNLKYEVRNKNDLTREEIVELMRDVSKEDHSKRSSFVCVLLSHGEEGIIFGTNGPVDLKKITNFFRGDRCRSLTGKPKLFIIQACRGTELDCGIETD
T3 sequence (P42574 176-277 limits assumed): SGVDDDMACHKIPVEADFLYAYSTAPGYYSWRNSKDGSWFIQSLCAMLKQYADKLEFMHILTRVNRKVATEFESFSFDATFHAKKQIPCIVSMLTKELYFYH
Excerpt: Reagents for peptide synthesis were purchased from Advanced ChemTech (Louisville, Ky.), NovaBiochem (La Jolla, Calif.), or Anaspec (San Jose, Calif.). Rink resin LS (100-200 mesh, 0.2 mmol/g) was purchased from Advanced ChemTech. Dextrane^Rho, trypsin and α-chymotrypsin were purchased from Sigma-Aldrich (St. Louis, Mo.). Cell culture media, fetal bovine serum, penicillin-streptomycin, 0.25% trypsin-EDTA, and DPBS were purchased from Invitrogen (Carlsbad, Calif.). Nuclear staining dye DRAQ5 was purchased from Thermo Scientific (Rockford, Ill.). Caspase-3, Human, recombinant protein was purchased from EMD Chemicals (San Diego, Calif.).
0.5 μL (100 U/μL) caspase-3 enzyme was first incubated with 90 μL of reaction buffer (50 mM HEPES, pH 7.4, 100 mM NaCl, 10 mM DTT) for 30 min in 96-well plate. Fluorogenic substrates (10 μL, 100 μM) were mixed into the above solutions to start the reactions, and the plate was measured on a Spectramax M5 plate reader (Ex=360 nm, Em=440 nm) (Molecular Devices). Fluorescence units (FU) increase at one-minute intervals was correlated to the release of Amc due to protease activity. The ΔFU/min was calculated from the linear portion of the reaction curve. Reported values are averages of three trials with the standard deviation indicated.

With `C[C@@H]1NC(=O)[C@H](CCCNC(=N)N)NC(=O)[C@H](Cc2ccc3ccccc3c2)NC(=O)[C@@H]2CCCCN2C(=O)[C@@H]([C@H](C)O)NC(=O)[C@H](Cc2ccc(F)cc2)NC(=O)[C@@H](Cc2ccc(F)cc2)NC(=O)c2cc3cc(c2)C(=O)NC[C@H](NC(=O)[C@@H](Cc2ccccc2)NC1=O)C(=O)N[C@@H](Cc1ccccc1)C(=O)N[C@@H](Cc1ccc2ccccc2c1)C(=O)N[C@@H](CCCNC(=N)N)C(=O)N[C@@H](CCCNC(=N)N)C(=O)N[C@@H](CCCNC(=N)N)C(=O)N[C@@H](CCCNC(=N)N)C(=O)N[C@H](C(=O)N[C@@H](CCCCN)C(N)=O)CNC3=O` [Peptide 37, bicyclo[Tm-(D-4-Fpa-Fpa-D-Thr-Pip-Nal-Arg-Ala-D-Phe)-Dap-(Phe-Nal-Arg-Arg-Arg-Arg-Dap)]-Lys] ([dPhe(4-F)][Phe(4-F)][dT][Pip][2Nal]RA[dF][Dap]F[2Nal]RRRR[Dap]K-NH2; linker N-9-16 via Trimesoyl; C-terminus assumed) the Kd (Pin1 [1]) was 0.12 µM, the IC50 (Pin1 [2]) was 0.19 µM and the IC50 (Pin1 [3]) was 0.17 µM. For the same compound, the Kd [4] was about 20 µM, the “Binding to Grb2 SH2 domain” value (Grb2 SH2 domain) was “not any of the other six proteins” and the “Binding to Ras” value (Ras) was “not any of the other six proteins”. For the same compound, the “Binding to SHP1” value (SHP1) was “not any of the other six proteins”, the “Binding to SHP2” value (SHP2) was “not any of the other six proteins” and the “Binding to protein tyrosine phosphatase 1B” value [5] was “not any of the other six proteins”. The “Binding to tumor necrosis factor-a” value (tumor necrosis factor-a) was “not any of the other six proteins”, the “Effect on catalytic activity of FKBP12” value (FKBP12) was “no effect” and the inhibition at 5 µM (Pin4; 5 μM inhibitor) was about 15%. The IC50 (Pin4; estimated) was about 34 µM, the “Effect on catalytic activity of cyclophilin A” value (cyclophilin A) was “no effect” and the “Internalization more efficient than peptide 1” value (HeLa cells [6]) was about 4 fold. The “Mean fluorescence intensity (MFI)” value (HeLa cells [6]; 5 μM FITC-labeled peptide, 2 h) was 8792, the “Increase in the PML level” value (HeLa cells [7]; 0.2 μM inhibitor) was 1.8 fold and the “Effect on the PML level” value (HeLa cells [7]; 0.2-5 μM) was “concentration-dependent increases in the PML level”. For the same compound, the “Increase in the PML level (plateau)” value (HeLa cells [7]; ~1 μM inhibitor) was 3.3 fold, the Growth inhibition (HeLa cells [8]; 3-day treatment with 5 μM) was over 60% and the IC50 (HeLa cells [8]; read-out: IC50 of HeLa cell growth, MTT) was 1 µM.
In the case of “A^c−RRRRRRRRRDΩUD^−A^mc (not fully specified (N-terminus, C-terminus); printed as Ac−RRRRRRRRRDΩUD−Amc) [Peptide 7 (Example 2)]”, the “In vitro activity against recombinant caspase-3 enzyme, ΔFU/min” value [9] is reported as 45.3 ± 6.5 ΔFU/min.
